This is an account of results in DBAASP.

Test systems include Candida albicans; Candida glabrata; Streptococcus agalactiae; Shigella dysenteriae; Escherichia coli IS37#; Escherichia coli IS117#.
Test in all cases: ≥ marks a high value that may be exact or a test limit, other limits are often not marked, values filed in µg/mL are converted to µM
The test system of assay [1] is Staphylococcus aureus USA 100.
The test system of assay [2] is Bacillus subtilis KCTC 1918.
In assay [3] the test system is Candida albicans TIMM 1768.
Assay [4] relates to Trichosporon beigelii KCTC 7707.
Assay [5] deals with Salmonella typhimurium KCTC 1926.
The test system of assay [6] is Staphylococcus epidermidis KCTC 3096.
The test system of assay [7] is Pseudomonas aeruginosa KCTC 1637.
Assay [8] relates to Latilactobacillus sakei NCDO 2714.
The subject of assay [9] is Carnobacterium maltaromaticum UI49.
Assay [10] deals with Pediococcus pentosaceus Pac1.0.
Assay [11] deals with Latilactobacillus sakei 706.
Assay [12] has as its system Lactiplantibacillus plantarum UI50.
Assay [13] has as its system Weissella viridescens NCDO 1655.
The test system of assay [14] is Lacticaseibacillus casei NCDO 2713.
For assay [15], the system named is Pediococcus pentosaceus NCDO 990.
The test system of assay [16] is Lacticaseibacillus casei subsp. casei NCDO 161.
In assay [17] the test system is Lactiplantibacillus plantarum 965.
Assay [18] has as its system Enterococcus faecalis V583.
The test system of assay [19] is Escherichia coli ATCC 25922.
Assay [20] relates to Mycobacterium tuberculosis H37Rv.
For assay [21], the system named is Pseudomonas aeruginosa ATCC 9027.
In assay [22] the test system is Staphylococcus aureus ATCC 25923.
The subject of assay [23] is Mycobacterium tuberculosis.
Assay [24] relates to Candida albicans ATCC 2002.
For assay [25], the system named is Pseudomonas aeruginosa ATCC 27853.
Assay [26] deals with Enterococcus faecalis ATCC 29212.
Assay [27] has as its system Pseudomonas aeruginosa CMCCB 1010.
Assay [28] has as its system Klebsiella pneumoniae IS59#.
Assay [29] relates to Pseudomonas aeruginosa IS350#.
Assay [30] concerns Enterobacter cloacae ATCC 13047.
Assay [31] relates to Candida albicans ATCC 90028.
Assay [32] concerns Klebsiella pneumoniae ATCC 700603.
For assay [33], the system named is Candida parapsilosis ATCC 22019.

SMILES strings stand for the structures. In brackets after ≈: the same amount, converted by molar mass.

On to `NC(=O)[C@H](CCCN=C(N)N)NC(=O)[C@H](CO)NC(=O)[C@H](CCCN=C(N)N)NC(=O)[C@@H](N)CO` [SRSR], for which, in assay [1], the MIC was ≥ 100 µM.
With `CC[C@H](C)[C@H](NC(=O)CNC(=O)[C@@H](NC(=O)[C@H](CCCCN)NC(=O)[C@H](CCCCN)NC(=O)[C@H](Cc1ccccc1)NC(=O)[C@H](CC(C)C)NC(=O)[C@H](CCCCN)NC(=O)[C@H](Cc1c[nH]c2ccccc12)NC(=O)[C@@H](N)CCCCN)[C@@H](C)CC)C(=O)NCC(=O)N[C@@H](CCCCN)C(=O)N[C@@H](Cc1ccccc1)C(=O)N[C@@H](CC(C)C)C(N)=O` [KWKLFKKIGIGKFL], the MIC was determined as 6.25 µM (≈ 10.7 µg/mL) in [2]; 12.5 µM (≈ 21.3 µg/mL) in assay [3]; 8.84 µM (≈ 15.1 µg/mL) in assay [4]; 1.56 µM (≈ 2.66 µg/mL) in [5]; 6.25 µM (≈ 10.7 µg/mL) in [6]; 3.12 µM (≈ 5.32 µg/mL) in [7].
Turning to `CC[C@H](C)[C@H](NC(=O)[C@H](C)NC(=O)[C@@H](NC(=O)[C@H](C)NC(=O)CNC(=O)[C@H](CCSC)NC(=O)[C@H](CCC(N)=O)NC(=O)[C@H](CC(C)C)NC(=O)[C@H](CO)NC(=O)[C@@H](N)Cc1ccc(O)cc1)[C@@H](C)O)C(=O)N[C@@H](CCCCN)C(=O)N[C@@H](CCC(N)=O)C(=O)N[C@H](C(=O)N[C@@H](CCCCN)C(=O)N[C@@H](CCCCN)C(=O)N[C@@H](CC(C)C)C(=O)N[C@@H](Cc1ccccc1)C(=O)N[C@@H](CCCCN)C(=O)N[C@@H](CCCCN)C(=O)N[C@@H](Cc1c[nH]c2ccccc12)C(=O)NCC(=O)N[C@@H](Cc1c[nH]c2ccccc12)C(=O)O)C(C)C` [YSLQMGATAIKQVKKLFKKWGW], the MIC worked out at 0.25 µM (≈ 0.653 µg/mL) in assay [8]; 6 µM (≈ 15.7 µg/mL) in assay [9]; 0.1 µM (≈ 0.261 µg/mL) in assay [10]; 1 µM (≈ 2.61 µg/mL) in [11]; 6 µM (≈ 15.7 µg/mL) in assay [12]; 0.05 µM (≈ 0.131 µg/mL) in assay [13]. Moreover, the MIC was determined as 6 µM (≈ 15.7 µg/mL) in [14], 6 µM (≈ 15.7 µg/mL) in [15], 0.25 µM (≈ 0.653 µg/mL) in [16] and 0.5 µM (≈ 1.31 µg/mL) in assay [17].
For `CC(C)C[C@H](NC(=O)[C@H](CC(C)C)NC(=O)[C@@H](N)CC(C)C)C(=O)NCC(=O)N[C@@H](C)C(=O)N[C@@H](C)C(=O)N[C@H](C(=O)NCC(=O)O)[C@@H](C)O` [LLLGAATG], the minimal inhibitory concentration (MIC) in assay [18] was ≥ 86.7 µM.
Regarding `CC[C@H](C)[C@H](NC(=O)[C@H](CC(C)C)NC(=O)[C@H](CO)NC(=O)[C@@H]1CCCN1C(=O)[C@@H](NC(=O)[C@H](C)NC(=O)[C@H](CCCCN)NC(=O)[C@H](CCSC)NC(=O)[C@H](C)NC(=O)[C@H](CC(C)C)NC(=O)[C@H](CCCCN)NC(=O)CNC(=O)[C@H](CC(C)C)NC(=O)[C@H](Cc1ccccc1)NC(=O)CNC(=O)[C@H](Cc1c[nH]c2ccccc12)NC(=O)[C@@H](N)Cc1ccccc1)C(C)C)C(=O)NCC(=O)NCC(=O)N[C@@H](CC(N)=O)C(=O)N[C@@H](CCCCN)C(=O)N[C@@H](CCCCN)C(=O)O` [FWGFLGKLAMKAVPSLIGGNKK], the MIC in the assay with Candida albicans was 3.12 µM (≈ 7.38 µg/mL); in assay [19] it was 24 µM (≈ 56.7 µg/mL); in [20], 13.6 µM (≈ 32.1 µg/mL); with Candida glabrata, 25 µM (≈ 59.1 µg/mL); against Streptococcus agalactiae, 10 µM (≈ 23.6 µg/mL); in assay [21], 5 µM (≈ 11.8 µg/mL). The MIC in [22] turned out to be 5 µM (≈ 11.8 µg/mL); in assay [23] it was 8.5 µM (≈ 20.1 µg/mL).
`CC[C@H](C)[C@@H]1NC(=O)[C@H](C)NC(=O)[C@@H](NC(=O)[C@H](Cc2ccccc2)NC(=O)[C@@H](NC(=O)[C@H](C)NC(=O)[C@@H]2CCCN2C(=O)CNC(=O)[C@@H](NC(=O)[C@H](CCCCN)NC(=O)[C@H](C)NC(=O)[C@H](C)NC(=O)[C@@H](NC(=O)[C@H](CCCN=C(N)N)NC(=O)[C@H](CC(C)C)NC(=O)[C@@H](NC(=O)[C@H](C)NC(=O)[C@@H]2CCCN2C(=O)[C@H](CC(C)C)NC(=O)[C@@H](N)Cc2ccccc2)C(C)C)C(C)C)C(C)C)C(C)C)CSSC[C@@H](C(=O)O)NC(=O)[C@H](CCCCN)NC(=O)[C@H](CCC(N)=O)NC(=O)[C@H]([C@@H](C)O)NC1=O` [FLPAVLRVAAKVGPAVFCAITQKC]: the MIC in assay [19] was determined as 0.999 µM (≈ 2.5 µg/mL); in assay [24] it was 0.2 µM (≈ 0.5 µg/mL); in assay [25], 2 µM (≈ 5 µg/mL); in assay [26] it was 4 µM (≈ 9.99 µg/mL); in assay [27], 4 µM (≈ 9.99 µg/mL); against Shigella dysenteriae, 4 µM (≈ 9.99 µg/mL). Moreover, the MIC is 2 µM (≈ 5 µg/mL) in assay [28]; 4 µM (≈ 9.99 µg/mL) in assay [29]; 20 µM (≈ 50 µg/mL) against Escherichia coli IS37#; 2 µM (≈ 5 µg/mL) in assay [30]; 4 µM (≈ 9.99 µg/mL) in assay [31]; 4 µM (≈ 9.99 µg/mL) in [32]. For the same compound, the MIC in [33] amounted to 2 µM (≈ 5 µg/mL); in the assay on Escherichia coli IS117#, 20 µM (≈ 50 µg/mL); in assay [22] it was 0.999 µM (≈ 2.5 µg/mL).

What is called MIC is the smallest concentration in the dilution series that meets the test's criterion for growth inhibition. Higher therefore signals a need for much substance.
